In PubChem BioAssay (NCI):
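Where inhibition never reached the appropriate level, the endpoint shown equals the highest concentration tested. Otherwise, values were interpolated linearly from a five-concentration, 48-hour dose response in 96-well plates. GI50 marks 50% less growth. TGI: total growth inhibition.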

Legend:
Test in all cases: NCI-60 cell line screen, 48 h
MALME-3M melanoma = system: MALME-3M melanoma
SF-295 CNS = system: SF-295 CNS
ACHN renal = system: ACHN renal
SK-MEL-2 melanoma = system: SK-MEL-2 melanoma
IGROV1 ovarian = system: IGROV1 ovarian
MDA-MB-435 = system: MDA-MB-435
UACC-257 melanoma = system: UACC-257 melanoma
LOX IMVI melanoma = system: LOX IMVI melanoma
SF-539 CNS = system: SF-539 CNS
HCC-2998 colon = system: HCC-2998 colon
SK-MEL-28 melanoma = system: SK-MEL-28 melanoma
EKVX NSCLC = system: EKVX NSCLC
HL-60(TB) leukemia = system: HL-60(TB) leukemia
SF-268 CNS = system: SF-268 CNS
SNB-75 CNS = system: SNB-75 CNS
MCF7 breast = system: MCF7 breast
T-47D breast = system: T-47D breast
OVCAR-3 ovarian = system: OVCAR-3 ovarian
DU-145 prostate = system: DU-145 prostate
A549 NSCLC = system: A549 NSCLC
SNB-19 CNS = system: SNB-19 CNS
SW-620 colon = system: SW-620 colon
HCT-15 colon = system: HCT-15 colon
SK-OV-3 ovarian = system: SK-OV-3 ovarian
RXF 393 renal = system: RXF 393 renal
MOLT-4 leukemia = system: MOLT-4 leukemia
HOP-62 NSCLC = system: HOP-62 NSCLC
BT-549 breast = system: BT-549 breast
U251 CNS = system: U251 CNS
HOP-92 NSCLC = system: HOP-92 NSCLC
RPMI-8226 leukemia = system: RPMI-8226 leukemia
HS 578T breast = system: HS 578T breast
UACC-62 melanoma = system: UACC-62 melanoma
SR leukemia = system: SR leukemia
786-0 renal = system: 786-0 renal
COLO 205 colon = system: COLO 205 colon
NCI-H522 lung = system: NCI-H522 lung
HT29 colon = system: HT29 colon
HCT-116 colon = system: HCT-116 colon
K-562 leukemia = system: K-562 leukemia
M14 melanoma = system: M14 melanoma
SN12C renal = system: SN12C renal
A498 renal = system: A498 renal
OVCAR-5 ovarian = system: OVCAR-5 ovarian
PC-3 prostate = system: PC-3 prostate
CCRF-CEM leukemia = system: CCRF-CEM leukemia
SK-MEL-5 melanoma = system: SK-MEL-5 melanoma
OVCAR-8 ovarian = system: OVCAR-8 ovarian
NCI-H460 lung = system: NCI-H460 lung
KM12 colon = system: KM12 colon
NCI-H226 lung = system: NCI-H226 lung
UO-31 renal = system: UO-31 renal
OVCAR-4 ovarian = system: OVCAR-4 ovarian
MDA-MB-231 breast = system: MDA-MB-231 breast
NCI-H23 lung = system: NCI-H23 lung
TK-10 renal = system: TK-10 renal
CAKI-1 renal = system: CAKI-1 renal
NCI/ADR-RES ovarian = system: NCI/ADR-RES ovarian

## CN1CCN(Cc2ccc(NC(=O)c3cncc(C#Cc4cnc5ccc(NCCO)nn45)c3)cc2C(F)(F)F)CC1
MALME-3M melanoma
  GI50: 135 nM
  TGI: 635 nM
SF-295 CNS
  GI50: 717 nM
  TGI: 4940 nM
ACHN renal
  GI50: 1700 nM
  TGI: 5860 nM
SK-MEL-2 melanoma
  GI50: 131 nM
  TGI: 435 nM
IGROV1 ovarian
  GI50: 239 nM
  TGI: 2440 nM
MDA-MB-435
  GI50: 123 nM
  TGI: 919 nM
UACC-257 melanoma
  GI50: 608 nM
  TGI: 2230 nM
LOX IMVI melanoma
  GI50: 179 nM
  TGI: 769 nM
SF-539 CNS
  GI50: 61.6 nM
  TGI: 596 nM
HCC-2998 colon
  GI50: 687 nM
  TGI: 3200 nM
SK-MEL-28 melanoma
  GI50: 529 nM
  TGI: 1740 nM
EKVX NSCLC
  GI50: 673 nM
  TGI: 4010 nM
HL-60(TB) leukemia
  GI50: 138 nM
  TGI: 609 nM
SF-268 CNS
  GI50: 207 nM
  TGI: 1110 nM
SNB-75 CNS
  GI50: 87.4 nM
  TGI: 414 nM
MCF7 breast
  GI50: 90.3 nM
  TGI: 787 nM
T-47D breast
  GI50: 603 nM
  TGI: 4220 nM
OVCAR-3 ovarian
  GI50: 349 nM
  TGI: 2060 nM
DU-145 prostate
  GI50: 486 nM
  TGI: 3470 nM
A549 NSCLC
  GI50: 718 nM
  TGI: 4650 nM
SNB-19 CNS
  GI50: 901 nM
  TGI: 3990 nM
SW-620 colon
  GI50: 118 nM
  TGI: 580 nM
HCT-15 colon
  GI50: 1650 nM
  TGI: 6490 nM
SK-OV-3 ovarian
  GI50: 805 nM
  TGI: 3200 nM
RXF 393 renal
  GI50: 590 nM
  TGI: 1350 nM
MOLT-4 leukemia
  GI50: 141 nM
  TGI: 3860 nM
HOP-62 NSCLC
  GI50: 324 nM
  TGI: 1420 nM
BT-549 breast
  GI50: 824 nM
  TGI: 1620 nM
U251 CNS
  GI50: 609 nM
  TGI: 1450 nM
HOP-92 NSCLC
  GI50: 19 nM
  TGI: 87.4 nM
RPMI-8226 leukemia
  GI50: 1010 nM
  TGI: 2970 nM
HS 578T breast
  GI50: 115 nM
  TGI: 863 nM
UACC-62 melanoma
  GI50: 532 nM
  TGI: 1620 nM
SR leukemia
  GI50: 58.4 nM
  TGI: 1360 nM
786-0 renal
  GI50: 853 nM
  TGI: 2030 nM
COLO 205 colon
  GI50: 111 nM
  TGI: 306 nM
NCI-H522 lung
  GI50: 187 nM
  TGI: 940 nM
HT29 colon
  GI50: 188 nM
  TGI: 1430 nM
HCT-116 colon
  GI50: 92.1 nM
  TGI: 675 nM
K-562 leukemia
  GI50: 5 nM
  TGI: 794 nM
M14 melanoma
  GI50: 231 nM
  TGI: 864 nM
SN12C renal
  GI50: 172 nM
  TGI: 2630 nM
A498 renal
  GI50: 385 nM
  TGI: 946 nM
OVCAR-5 ovarian
  GI50: 342 nM
  TGI: 4330 nM
PC-3 prostate
  GI50: 457 nM
  TGI: 3920 nM
CCRF-CEM leukemia
  GI50: 31 nM
  TGI: 17800 nM
SK-MEL-5 melanoma
  GI50: 797 nM
  TGI: 1830 nM
OVCAR-8 ovarian
  GI50: 698 nM
  TGI: 4050 nM
NCI-H460 lung
  GI50: 209 nM
  TGI: 718 nM
KM12 colon
  GI50: 5 nM
  TGI: 1300 nM
NCI-H226 lung
  GI50: 75.8 nM
  TGI: 1310 nM
UO-31 renal
  GI50: 2000 nM
  TGI: 6880 nM
OVCAR-4 ovarian
  GI50: 378 nM
  TGI: 2100 nM
MDA-MB-231 breast
  GI50: 79.5 nM
  TGI: 335 nM
NCI-H23 lung
  GI50: 277 nM
  TGI: 1310 nM
TK-10 renal
  GI50: 1200 nM
  TGI: 2990 nM
CAKI-1 renal
  GI50: 764 nM
  TGI: 3470 nM
NCI/ADR-RES ovarian
  GI50: 30100 nM
  TGI: 50000 nM
